Reference: US20240016781A1, “TREATMENT OF KRAS MUTANT CANCERS” (MEI Pharma, Inc., priority 2020, published 2024)
Read-outs that look alike come from different tables or passages of the source.

Legend:
Test in all cases: 72-hour CellTiter-Glo 2.0 growth inhibition screen (single agent, 9x9 combination dose matrix)
Assay type in all cases: cell-based
NCI-H358 = conditions: for EC50: NCI-H358, 72 h
Description: (§1) Growth inhibition was determined using a 72-hour CellTiter-Glo®2.0 proliferation assay. Combination format was a 9×9 dose matrix. Six of the 20 cell lines received the original two combinations whilst the remaining 14 cell lines received two additional combinations resulting in four combinations in total. Results have been supplied as both Chalice Analyzer files (.mcc) and raw luminescence data.
(§2) Cell lines that have been preserved in liquid nitrogen are thawed and expanded in growth media (see Appendix I). Once cells have reached expected doubling times, screening begins. Cells are seeded in 25 μl of growth media in black 384-well tissue culture treated plates at 500 cells per well (as noted in Analyzer). Cells are equilibrated in assay plates via centrifugation and placed at 37° C. 5% CO2 for twenty-four hours before treatment. […] Compounds are transferred to assay plates using and Echo acoustic liquid handling system. […] of each compound was added at the appropriate concentration for all combination dose points. Therefore, final assay volume would be 25.05 μl. Assay plates are incubated with compound for 3 days and are then analyzed using CellTiter-Glo 2.0. All data points are collected via automated processes and are subject to quality control and analyzed.
(§3) If T≥V_0:100*(1−(T−V_0)/(V−V_0)) • where T is the signal measure for a test article, V is the untreated/vehicle-treated control measure, and Vo is the untreated/vehicle control measure at time zero (also colloquially referred as TO plates). This formula is derived from the Growth Inhibition calculation used in the National Cancer Institute's NCI-60 high throughput screen. For the purposes of this disclosure, all data analysis was performed in Growth Inhibition (except where noted).
(§4) Inhibition is also provided as a measure of cell viability. […] Inhibition of 100% represents no doubling of cell numbers during the treatment window. Both cytostatic and cytotoxic treatments can yield an Inhibition percentage of 100%. Inhibition percentage is calculated as the following: […]
(§5) The fractional inhibition for each component agent and combination point in the matrix is calculated relative to the median of all untreated/vehicle-treated control wells. The Synergy Score equation integrates the experimentally-observed activity volume at each point in the matrix in excess of a model surface numerically derived from the activity of the component agents using the Loewe model for additivity. Additional terms in the Synergy Score equation (above) are used to normalize for various dilution factors used for individual agents and to allow for comparison of synergy scores across an entire experiment. The inclusion of positive inhibition gating or an Idata multiplier removes noise near the zero-effect level, and biases results for synergistic interactions at that occur at high activity levels. Combinations with higher maximum Growth Inhibition (GI) effects or those which are synergistic at low concentrations will have higher Synergy Scores.
(§6) The CI is a rough estimate of how much drug was needed in combination relative to the single agent doses required to achieve the chosen effect level. CI values in the range of 0.5-0.7 are typical for in vitro measurements of current clinical combinations. The CI error (σCI) is calculated using standard error propagation through the CI calculation based on the isobologram errors. In the Chalice Analyzer, the Best CI is reported from the many CI values calculated for each Icut crossing combination. Among all the measured CI values, the one with the largest single-to-noise level (1−CI)/σCI is reported as the Best CI. Best CI Level is the effect level from which the CI is calculated.

Panc 04.03 = conditions: for EC50 / Response Area: Panc 04.03, Pancreas
Description: as §1, §2, §3, §4, §5, §6

SW48 = conditions: for EC50: SW48, 72 h
Description: as §1, §2, §3, §4, §5, §6

Gp2D = conditions: for EC50: GP2d
Description: as §1, §2, §3, §4, §5, §6

SW837 = conditions: for EC50: SW837, 72 h
Description: as §1, §2, §3, §4, §5, §6

[1] = NCl-H358 (KRAS G12C), enhancer + MEI-522 (Voruciclib), 72 h
[2] = enhancer combined with MEI-522 (Voruciclib), NCl-H358 (Lung), 72 hours, inhibition data
[3] = Panc 04.03 (KRAS G12D), enhancer + MEI-522 (Voruciclib), 72 h
[4] = enhancer combined with MEI-522 (Voruciclib), Panc 04.03 (Pancreas), 72 hours, inhibition data
[5] = Homo sapiens, SW48, Colorectal, Additional Single Agent Responses (inhibition, % I), 72 h
[6] = Homo sapiens, SW48, Colorectal, growth inhibition (GI) curve, single agent, 72 h
[7] = SW48 (KRAS WT), enhancer + MEI-522 (Voruciclib), 72 h
[8] = enhancer combined with MEI-522 (Voruciclib), SW48 (Colorectal), 72 hours, inhibition data
[9] = Gp2D (KRAS G12D), enhancer + MEI-522 (Voruciclib), 72 h
[10] = Gp2D, Colorectal, Additional Single Agent Responses (inhibition, % I), 72 h
[11] = enhancer combined with MEI-522 (Voruciclib), Gp2D (Colorectal), 72 hours, inhibition data
[12] = Homo sapiens, SW837, Colorectal, Additional Single Agent Responses (inhibition, % I), 72 h
[13] = Homo sapiens, SW837, Colorectal, growth inhibition (GI) curve, single agent, 72 h
[14] = SW837 (KRAS G12C), enhancer + MEI-522 (Voruciclib), 72 h
[15] = enhancer combined with MEI-522 (Voruciclib), SW837 (Colorectal), 72 hours, inhibition data

In the case of `CN1CCN(c2ccc(OC(F)(F)F)c(Nc3ncc4c(n3)-c3c(c(C(N)=O)nn3CCO)CC4)c2)CC1` [Onvansertib], the EC50 (NCI-H358; Homo sapiens, NCl-H358, Lung, Additional Single Agent Responses (inhibition, % I), 72 h) is reported as 16.7 nM, the EC50 (NCI-H358; Homo sapiens, NCl-H358, Lung, growth inhibition (GI) curve, single agent, 72 h) is reported as 18.2 nM and the IC50 (NCI-H358; Homo sapiens, NCI-H358, NCl-H358, Lung, Additional Single Agent Responses (inhibition, % I), 72 h) is reported as 20.3 nM. The Emax (NCI-H358; Homo sapiens, NCI-H358, NCl-H358, Lung, Additional Single Agent Responses, 72 h, read-out: Max Response (% I)) was 82%, the GI50 (NCI-H358; Homo sapiens, NCI-H358, NCl-H358, Lung, growth inhibition (GI) curve, single agent, 72 h) was 18.3 nM and the Emax (NCI-H358; Homo sapiens, NCI-H358, NCl-H358, Lung, growth inhibition (GI), single agent, 72 h, read-out: Max Response (% GI)) was 127%. The “Best CI” value (NCI-H358; [1]) was 0.27, the “Bliss Volume” value (NCI-H358; [1]) was −1.00 and the HSA volume (NCI-H358; [1]) was −5.36. The “Loewe Volume” value (NCI-H358; [1]) was −3.73, the “Synergy Score” value (NCI-H358; [1]) was 6.46 and the “Response Area” value (NCI-H358; NCl-H358, Lung, Additional Single Agent Responses (inhibition, % I), 72 h) was 3.36. The “Response Area” value (NCI-H358; NCl-H358, Lung, growth inhibition (GI), AUC, single agent, 72 h) was 4.69, the “Best CI” value (NCI-H358; [2]) was 0.38 and the “Best CI Level” value (NCI-H358; [2]) was 75. The “Bliss Volume” value (NCI-H358; [2]) was −3.69, the HSA volume (NCI-H358; [2]) was −3.63 and the “Loewe Volume” value (NCI-H358; [2]) was −3.23. The “Synergy Score” value (NCI-H358; [2]) was 1.36, the GI50 (Panc 04.03; Homo sapiens, Panc 04.03, 72 h) was 50.8 nM and the EC50 (Panc 04.03; Homo sapiens, Panc 04.03, 72 h, Additional Single Agent Responses (inhibition, % I), 72 h) was 18.7 nM. For the same compound, the EC50 (Panc 04.03; Homo sapiens, Panc 04.03, 72 h, growth inhibition (GI) curve, single agent, 72 h) was 19.2 nM, the Emax (Panc 04.03; Homo sapiens, Panc 04.03, 72 h, read-out: Max Response (% GI)) was 70% and the Emax (Panc 04.03; Homo sapiens, Panc 04.03, 72 h, read-out: Max Response (% I)) was 54%. For the same compound, the “Best CI” value (Panc 04.03; [3]) was 0.32, the “Bliss Volume” value (Panc 04.03; [3]) was 2.32 and the HSA volume (Panc 04.03; [3]) was 0.85. The “Loewe Volume” value (Panc 04.03; [3]) was 0.87, the “Synergy Score” value (Panc 04.03; [3]) was 1.99 and the “Response Area” value (Panc 04.03; Additional Single Agent Responses (inhibition, % I), 72 h) was 1.94. The “Response Area” value (Panc 04.03; growth inhibition (GI), AUC, single agent, 72 h) was 2.60, the “Best CI” value (Panc 04.03; [4]) was 0.64 and the “Best CI Level” value (Panc 04.03; [4]) was 20. The “Bliss Volume” value (Panc 04.03; [4]) was 0.17, the HSA volume (Panc 04.03; [4]) was 0.61 and the “Loewe Volume” value (Panc 04.03; [4]) was 0.89. For the same compound, the “Synergy Score” value (Panc 04.03; [4]) was 0.98, the EC50 (SW48; [5]) was 13.8 nM and the EC50 (SW48; [6]) was 15.4 nM. For the same compound, the IC50 (SW48; [5]) was 14.3 nM, the Emax (SW48; Homo sapiens, SW48, Colorectal, Additional Single Agent Responses, 72 h, read-out: Max Response (% I)) was 95% and the GI50 (SW48; [6]) was 13.4 nM. The Emax (SW48; Homo sapiens, SW48, Colorectal, growth inhibition (GI), single agent, 72 h, read-out: Max Response (% GI)) was 177%, the “Best CI” value (SW48; [7]) was 0.72 and the “Bliss Volume” value (SW48; [7]) was 6.27. The HSA volume (SW48; [7]) was −3.43, the “Loewe Volume” value (SW48; [7]) was −1.93 and the “Synergy Score” value (SW48; [7]) was 7.50. The “Response Area” value (SW48; SW48, Colorectal, Additional Single Agent Responses (inhibition, % I), 72 h) was 4.36, the “Response Area” value (SW48; SW48, Colorectal, growth inhibition (GI), AUC, single agent, 72 h) was 7.09 and the “Best CI” value (SW48; [8]) was 0.76. For the same compound, the “Bliss Volume” value (SW48; [8]) was −0.78, the HSA volume (SW48; [8]) was −0.51 and the “Loewe Volume” value (SW48; [8]) was −0.74. The “Synergy Score” value (SW48; [8]) was 1.28, the Best CI Level (SW48; enhancer combined with MEI-522 (Voruciclib), SW48 (Colorectal), 72 hours, inhibition data, unit assumed) was 20% and the EC50 (Gp2D; 72 h, Colorectal, Additional Single Agent Responses (inhibition, % I)) was 23.8 nM. For the same compound, the EC50 (Gp2D; 72 h, Colorectal, growth inhibition (GI) curve, single agent) was 33.9 nM, the “Best CI” value (Gp2D; [9]) was 0.96 and the “Bliss Volume” value (Gp2D; [9]) was 7.51. For the same compound, the HSA volume (Gp2D; [9]) was −1.36, the “Loewe Volume” value (Gp2D; [9]) was −1.41 and the “Synergy Score” value (Gp2D; [9]) was 3.16. For the same compound, the IC50 (Gp2D; [10]) was 25.5 nM, the “Response Area” value (Gp2D; [10]) was 4.29 and the Emax (Gp2D; Gp2D, Colorectal, Additional Single Agent Responses, 72 h, read-out: Max Response (% I)) was 93%. The GI50 (Gp2D; Gp2D, Colorectal, growth inhibition (GI) curve, single agent, 72 h) was 22.4 nM, the “Response Area” value (Gp2D; Gp2D, Colorectal, growth inhibition (GI), AUC, single agent, 72 h) was 7.46 and the Emax (Gp2D; Gp2D, Colorectal, growth inhibition (GI), single agent, 72 h, read-out: Max Response (% GI)) was 170%. The “Best CI” value (Gp2D; [11]) was 0.77, the “Best CI Level” value (Gp2D; [11]) was 20 and the “Bliss Volume” value (Gp2D; [11]) was 0.17. For the same compound, the HSA volume (Gp2D; [11]) was 0.25, the “Loewe Volume” value (Gp2D; [11]) was 0.05 and the “Synergy Score” value (Gp2D; [11]) was 0.56. The EC50 (SW837; [12]) was 35.4 nM, the EC50 (SW837; [13]) was 42.1 nM and the IC50 (SW837; [12]) was 53.4 nM. It also gave an Emax (SW837; Homo sapiens, SW837, Colorectal, Additional Single Agent Responses, 72 h, read-out: Max Response (% I)) of 76%, a GI50 (SW837; [13]) of 34.1 nM and an Emax (SW837; Homo sapiens, SW837, Colorectal, growth inhibition (GI), single agent, 72 h, read-out: Max Response (% GI)) of 118%. For the same compound, the “Best CI” value (SW837; [14]) was 0.78, the “Bliss Volume” value (SW837; [14]) was 0.66 and the HSA volume (SW837; [14]) was −1.30. For the same compound, the “Loewe Volume” value (SW837; [14]) was −4.09, the “Synergy Score” value (SW837; [14]) was 0.88 and the “Response Area” value (SW837; SW837, Colorectal, Additional Single Agent Responses (inhibition, % I), 72 h) was 3.32. The “Response Area” value (SW837; SW837, Colorectal, growth inhibition (GI), AUC, single agent, 72 h) was 5.06, the “Best CI” value (SW837; [15]) was 0.76 and the “Best CI Level” value (SW837; [15]) was 20. For the same compound, the “Bliss Volume” value (SW837; [15]) was −1.39, the HSA volume (SW837; [15]) was −0.59 and the “Loewe Volume” value (SW837; [15]) was −2.03. For the same compound, the “Synergy Score” value (SW837; [15]) was 0.33.
